Test results from patent US20260250270A1, “Compound Used as Kinase Inhibitor and Use Thereof” (TYK MEDICINES, INC., priority 2022, published 2026).
In brackets after ≈: the same amount, converted by molar mass. One block for each molecule: values may come before it.

Tests used:
NCI-H1975 = experiment: Cell proliferation inhibition (CellTiter-Glo) on cell line NCI-H1975; assay type: cell-based; conditions: Homo sapiens
Description: (§1) The cell lines NCI-H1975 and PC9 selected for the experiments were provided by Sino-American Guanke Biotechnology (Beijing) Co. and were validated prior to use in this study.
(§2) A 10× stock of the compound to be tested was prepared for use, with 9 concentrations in 4-fold gradient dilution, diluted from 10 μM.
(§3) The logarithmic growth phase cell suspension was inoculated into a 96-well culture plate with 90 μL volume per well (2000 cells/well). 10 μL of 10× Compound to be tested was added to the plate according to the plate spreading diagram, and then mixed well. The plate was incubated in a 5% CO2 incubator at 37° C. The proliferation inhibitory activity of the compound was determined by the CellTiter-Glo method. Cell proliferation inhibition rate (Inhibition Rate) data were plotted using GraphPad Prism 8.0 software for cell viability curves and IC50 values were calculated.

[1] = biological target: Ba/F3-FL-EGFR-A763-Y764 ins FQEA (Homo sapiens, UniProt P00533, INS763FQEA, cells depend on it); experiment: Cell proliferation inhibition (CellTiter-Glo), EGFR exon 20 insertion engineered cells; assay type: cell-based; conditions: 72 h, read-out: IC50, Ba/F3-FL-EGFR A763-Y764ins FQEA
Description: (§4) The selected engineering cells Ba/F3-FL-EGFR-V769-D770 ins ASV, Ba/F3-FL-EGFR-D770-N771 ins SVD, Ba/F3-FL-EGFR-H773-V774 ins NPH, Ba/F3-FL-EGFR-A763-Y764 ins FQEA, Ba/F3-HER2-A775-G776 ins YVMA were provided by Hefei PreceDo Biomedical Technology Co., LTD and were validated prior to use in this study.
(§5) A 20× stock of the compound to be tested was prepared for use, with 9 concentrations in 3-fold gradient dilution, diluted from 1 μM.
(§6) The logarithmic growth phase cell suspension was inoculated into 96-well white cell culture plates with 95 μL volume per well (2000 cells/well). 5 μL of 20× Compound to be tested was added to the plate containing 95 μL of cell suspension according to the plate spreading diagram, and then mixed well. The plate was incubated in a 5% CO2 incubator at 37° C. for 72 h. The proliferation inhibition activity of the compounds was determined by the CellTiter-Glo method, and the fluorescence value per well, RLU, was obtained from the SpectraMax Paradigm reading. Inhibition Rate data were processed using the following formula: Inhibition Rate (Inh %)=100−(RLU compound−RLU blank)/(RLU control−RLU blank)*100%. The cell viability corresponding to different concentrations of compounds was calculated in EXCEL, and then GraphPad Prism software was used to plot the cell viability curve and calculate the IC50 value.

[2] = biological target: Ba/F3-FL-EGFR-V769-D770 ins ASV (Homo sapiens, UniProt P00533, DUP767-769, cells depend on it); experiment: as above; assay type: cell-based; conditions: 72 h, read-out: IC50, Ba/F3-FL-EGFR V769-D770ins ASV
Description: as §4, §5, §6

[3] = biological target: Ba/F3-FL-EGFR-D770-N771 ins SVD (Homo sapiens, UniProt P00533, DUP768-770, cells depend on it); experiment: as above; assay type: cell-based; conditions: 72 h, read-out: IC50, Ba/F3-FL-EGFR D770-N771ins SVD
Description: as §4, §5, §6

[4] = biological target: Ba/F3-FL-EGFR-H773-V774 ins NPH (Homo sapiens, UniProt P00533, DUP771-773, cells depend on it); experiment: as above; assay type: cell-based; conditions: 72 h, read-out: IC50, Ba/F3-FL-EGFR H773-V774ins NPH
Description: as §4, §5, §6

[5] = test system: Ba/F3 EGFR D770_N771 ins SVD; experiment: In vivo pharmacodynamic study, Ba/F3-EGFR-D770_N771 ins SVD subcutaneous xenograft model; parameters: species or system nude mice; conditions: 30 mg/kg, P.O, QD * 14 days
Description: The experimental design and results were shown in Table 9, wherein P.O referred to administered orally; QD: once a day; TGI (Tumor volume inhibition rate)=(1-Tumor weight of the treatment group/Tumor weight of the control group)*100%. The cell line Ba/F3 EGFR D770_N771 ins SVD was cultured in 37° C., 5% CO2 with RPMI1640+10% fetal bovine serum+1% double antibody, and passaged 2-3 times a week. When the cell saturation was 80-90% and the number of cells met the requirement, the cells were collected. 0.2 mL (1*10^6) cells were subcutaneously inoculated into the right back of 6-8 weeks old female nude mice weighing 18-22 g. When the average tumor volume reached approximately 150-200 mm^3, grouping and drug administration started. Before the start of drug administration, all animals were weighed and the tumor volume was measured with vernier calipers. Mice were randomly grouped according to tumor volume to ensure that tumor volumes were similar between groups. Three mice in each group were administered orally once daily, and the inoculation site was observed after administration. Tumor volume and mouse body weight were measured twice a week.

[6] = biological target: Ba/F3-HER2-A775-G776 ins YVMA (Homo sapiens, UniProt P04626, DUP772-775, cells depend on it); experiment: Cell proliferation inhibition (CellTiter-Glo), HER2 exon 20 insertion engineered cells; assay type: cell-based; conditions: for GI50: 72 h, CellTiter-Glo, read-out: IC50, Ba/F3-HER2-A775-G776ins YVMA
Description: as §4, §5, §6

PC9 = experiment: Cell proliferation inhibition (CellTiter-Glo) on cell line PC9; assay type: cell-based; conditions: Homo sapiens, PC-9
Description: as §1, §2, §3

[7] = test system: Lung cancer LU0387PDX model; experiment: Pharmacodynamic study on lung cancer LU0387PDX model; assay type: in vivo, mice; conditions: LU0387 model; for TGI (%): P.O, QD * 13 days
Excerpt: Lung cancer LU0387PDX model is a commonly used xenograft tumor model from Crown Bioscience, the experimental situation of this model is described as follows: after euthanasia of tumor-bearing mice, the tumor blocks were dissected out in aseptic condition, the blocks were cleaned to remove blood stains and connective tissues and necrotic parts, and the tumors were cut into small pieces of 2*2*2 mm^3, and inoculated with an adapter needle in sterilized experimental mice subcutaneously on the right dorsal side. Tumor growth was regularly observed, and when the tumors grew to an average volume of 100~200 mm^3, mice were randomly grouped according to tumor size and body weight for drug administration. Before the start of drug administration, all animals were weighed and the tumor volume was measured with vernier calipers. Mice were randomly grouped according to tumor volume to ensure that tumor volumes were similar between groups. Three mice in each group were administered orally once daily, and the inoculation site was observed after administration. Tumor volume and mouse body weight were measured twice a week. The experimental design and results were shown in Table 9, wherein P.O referred to administered orally; QD: once a day; TGI (Tumor volume inhibition rate)=(1-Tumor weight of the treatment group/Tumor weight of the control group)*100%.

[8] = Competitive pulping of anhydrous crystalline forms I and V; assay type: physicochemical; conditions: saturated acetone and acetonitrile solutions, 25° C. or 50° C.
[9] = Tablet pressing experiment; assay type: physicochemical; conditions: pressure 30 MPa
[10] = Dynamic water vapor adsorption (DVS) test; assay type: physicochemical
[11] = Solubility test by visual inspection in 18 solvents; assay type: physicochemical; conditions: room temperature
Excerpt: The solubility of the free base crystalline form I of the compound of Example 1 was crudely determined by visual inspection in 18 solvents at room temperature. The free base crystalline form I was only highly soluble in dichloroethane and dichloromethane and poorly soluble in most of the solvents tested.

Grinding experiment = assay type: physicochemical
[12] = Stability experiment (left open, XRPD and liquid chromatography); assay type: physicochemical; conditions: left open at 80° C. 3 days, 60° C. 7 days, 25° C./60% RH 7 days, 40° C./75% RH 7 days, 25° C./90±5% RH 7 days
Description: In the stability experiment, when the free base crystalline form I was left open at 80° C. for 3 days, 60° C. for 7 days, 25° C./60% RH for 7 days, 40° C./75% RH for 7 days, and 25° C./90±5% RH for 7 days, the samples were taken for XRPD detection, respectively.

Sequence of Ba/F3-HER2-A775-G776 ins YVMA (P04626 with tags, fused parts or gaps DUP772-775): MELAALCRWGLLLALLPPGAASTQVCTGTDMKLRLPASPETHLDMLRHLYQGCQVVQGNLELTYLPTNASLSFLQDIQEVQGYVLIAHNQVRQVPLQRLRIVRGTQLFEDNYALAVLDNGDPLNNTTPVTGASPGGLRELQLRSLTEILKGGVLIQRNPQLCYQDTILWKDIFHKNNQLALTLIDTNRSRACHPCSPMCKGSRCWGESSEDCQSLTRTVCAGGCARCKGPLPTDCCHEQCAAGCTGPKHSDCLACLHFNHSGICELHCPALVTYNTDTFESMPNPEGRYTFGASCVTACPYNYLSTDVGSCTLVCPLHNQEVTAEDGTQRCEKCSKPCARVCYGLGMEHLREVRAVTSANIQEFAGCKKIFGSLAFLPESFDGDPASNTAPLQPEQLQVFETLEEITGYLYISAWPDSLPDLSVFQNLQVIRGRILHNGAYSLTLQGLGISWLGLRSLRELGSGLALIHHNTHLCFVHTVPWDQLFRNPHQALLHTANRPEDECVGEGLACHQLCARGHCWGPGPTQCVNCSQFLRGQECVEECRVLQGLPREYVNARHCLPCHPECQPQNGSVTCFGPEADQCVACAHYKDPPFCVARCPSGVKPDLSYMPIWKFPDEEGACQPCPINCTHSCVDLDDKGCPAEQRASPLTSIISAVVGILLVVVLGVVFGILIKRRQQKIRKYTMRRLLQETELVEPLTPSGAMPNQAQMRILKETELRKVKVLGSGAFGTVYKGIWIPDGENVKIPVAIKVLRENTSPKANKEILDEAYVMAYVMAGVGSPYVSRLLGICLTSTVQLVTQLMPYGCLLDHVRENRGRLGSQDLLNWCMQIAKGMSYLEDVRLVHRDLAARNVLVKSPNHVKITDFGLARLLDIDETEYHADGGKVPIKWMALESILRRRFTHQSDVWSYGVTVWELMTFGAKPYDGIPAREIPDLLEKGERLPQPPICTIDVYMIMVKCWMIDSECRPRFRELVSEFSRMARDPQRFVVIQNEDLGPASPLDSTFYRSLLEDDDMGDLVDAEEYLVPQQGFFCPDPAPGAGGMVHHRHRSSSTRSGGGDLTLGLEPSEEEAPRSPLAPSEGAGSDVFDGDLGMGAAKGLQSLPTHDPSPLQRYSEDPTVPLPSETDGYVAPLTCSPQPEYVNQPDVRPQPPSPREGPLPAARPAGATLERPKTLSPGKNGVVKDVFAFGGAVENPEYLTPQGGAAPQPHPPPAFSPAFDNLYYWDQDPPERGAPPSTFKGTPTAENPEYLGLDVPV
Sequence of Ba/F3-FL-EGFR-A763-Y764 ins FQEA (P00533 with tags, fused parts or gaps INS763FQEA): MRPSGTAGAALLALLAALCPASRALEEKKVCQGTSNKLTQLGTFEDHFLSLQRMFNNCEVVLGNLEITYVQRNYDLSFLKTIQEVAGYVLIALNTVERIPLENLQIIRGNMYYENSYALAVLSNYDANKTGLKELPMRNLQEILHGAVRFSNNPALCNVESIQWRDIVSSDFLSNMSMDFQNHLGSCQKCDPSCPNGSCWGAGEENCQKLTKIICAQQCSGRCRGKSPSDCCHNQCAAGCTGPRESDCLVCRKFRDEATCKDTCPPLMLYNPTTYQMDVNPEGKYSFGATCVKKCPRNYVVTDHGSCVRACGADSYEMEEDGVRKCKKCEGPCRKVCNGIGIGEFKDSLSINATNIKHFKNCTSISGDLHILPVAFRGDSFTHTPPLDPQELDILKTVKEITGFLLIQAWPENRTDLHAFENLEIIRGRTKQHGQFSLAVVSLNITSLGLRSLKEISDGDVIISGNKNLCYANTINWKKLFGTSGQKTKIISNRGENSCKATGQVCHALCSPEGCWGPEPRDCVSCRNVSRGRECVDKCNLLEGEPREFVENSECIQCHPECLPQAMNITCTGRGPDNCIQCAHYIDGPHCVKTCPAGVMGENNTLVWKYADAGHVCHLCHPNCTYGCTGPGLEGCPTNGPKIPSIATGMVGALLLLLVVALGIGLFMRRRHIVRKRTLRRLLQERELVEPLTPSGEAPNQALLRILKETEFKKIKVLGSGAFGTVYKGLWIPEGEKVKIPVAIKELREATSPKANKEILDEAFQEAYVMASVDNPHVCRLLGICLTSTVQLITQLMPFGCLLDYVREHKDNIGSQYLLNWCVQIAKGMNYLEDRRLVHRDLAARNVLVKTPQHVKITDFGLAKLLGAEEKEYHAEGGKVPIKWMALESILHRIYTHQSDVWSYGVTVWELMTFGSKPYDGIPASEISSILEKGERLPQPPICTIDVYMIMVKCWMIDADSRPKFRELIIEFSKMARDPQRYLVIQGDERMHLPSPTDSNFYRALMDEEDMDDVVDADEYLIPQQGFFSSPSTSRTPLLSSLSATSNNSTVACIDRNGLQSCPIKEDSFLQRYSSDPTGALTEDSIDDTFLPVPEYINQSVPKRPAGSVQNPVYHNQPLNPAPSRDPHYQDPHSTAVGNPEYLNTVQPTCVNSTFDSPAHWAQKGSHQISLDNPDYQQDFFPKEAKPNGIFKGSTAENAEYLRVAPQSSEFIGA
Sequence of Ba/F3-FL-EGFR-H773-V774 ins NPH (P00533 with tags, fused parts or gaps DUP771-773): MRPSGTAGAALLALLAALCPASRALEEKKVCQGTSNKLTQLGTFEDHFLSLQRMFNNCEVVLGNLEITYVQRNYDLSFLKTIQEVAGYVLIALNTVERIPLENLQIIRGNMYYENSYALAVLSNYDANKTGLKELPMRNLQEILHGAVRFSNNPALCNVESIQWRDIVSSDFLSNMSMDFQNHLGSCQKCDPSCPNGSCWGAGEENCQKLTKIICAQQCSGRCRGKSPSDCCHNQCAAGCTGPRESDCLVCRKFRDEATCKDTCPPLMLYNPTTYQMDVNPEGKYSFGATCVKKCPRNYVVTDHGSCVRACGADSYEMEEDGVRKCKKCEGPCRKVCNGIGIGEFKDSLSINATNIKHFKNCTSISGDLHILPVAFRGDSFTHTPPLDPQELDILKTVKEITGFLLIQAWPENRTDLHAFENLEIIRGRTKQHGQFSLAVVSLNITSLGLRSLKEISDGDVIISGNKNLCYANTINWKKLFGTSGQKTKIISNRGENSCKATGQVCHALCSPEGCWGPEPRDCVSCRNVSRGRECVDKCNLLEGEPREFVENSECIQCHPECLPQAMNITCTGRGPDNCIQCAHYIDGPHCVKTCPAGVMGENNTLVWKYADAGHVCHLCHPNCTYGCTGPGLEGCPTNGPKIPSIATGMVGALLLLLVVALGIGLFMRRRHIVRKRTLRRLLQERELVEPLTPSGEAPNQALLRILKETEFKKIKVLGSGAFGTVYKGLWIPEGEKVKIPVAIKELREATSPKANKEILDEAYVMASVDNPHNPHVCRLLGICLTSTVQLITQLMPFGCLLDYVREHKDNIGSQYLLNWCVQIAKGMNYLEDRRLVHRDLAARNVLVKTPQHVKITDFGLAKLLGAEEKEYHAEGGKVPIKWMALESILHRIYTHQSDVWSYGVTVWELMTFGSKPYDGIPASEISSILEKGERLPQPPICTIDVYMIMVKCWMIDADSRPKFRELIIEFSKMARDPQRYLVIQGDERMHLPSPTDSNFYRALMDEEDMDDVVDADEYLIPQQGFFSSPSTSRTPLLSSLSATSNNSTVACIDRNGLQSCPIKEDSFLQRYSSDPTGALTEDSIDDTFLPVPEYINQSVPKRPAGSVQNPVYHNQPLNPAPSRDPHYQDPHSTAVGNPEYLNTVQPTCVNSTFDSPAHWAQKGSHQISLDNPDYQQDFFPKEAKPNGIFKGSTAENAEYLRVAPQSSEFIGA
Sequence of Ba/F3-FL-EGFR-D770-N771 ins SVD (P00533 with tags, fused parts or gaps DUP768-770): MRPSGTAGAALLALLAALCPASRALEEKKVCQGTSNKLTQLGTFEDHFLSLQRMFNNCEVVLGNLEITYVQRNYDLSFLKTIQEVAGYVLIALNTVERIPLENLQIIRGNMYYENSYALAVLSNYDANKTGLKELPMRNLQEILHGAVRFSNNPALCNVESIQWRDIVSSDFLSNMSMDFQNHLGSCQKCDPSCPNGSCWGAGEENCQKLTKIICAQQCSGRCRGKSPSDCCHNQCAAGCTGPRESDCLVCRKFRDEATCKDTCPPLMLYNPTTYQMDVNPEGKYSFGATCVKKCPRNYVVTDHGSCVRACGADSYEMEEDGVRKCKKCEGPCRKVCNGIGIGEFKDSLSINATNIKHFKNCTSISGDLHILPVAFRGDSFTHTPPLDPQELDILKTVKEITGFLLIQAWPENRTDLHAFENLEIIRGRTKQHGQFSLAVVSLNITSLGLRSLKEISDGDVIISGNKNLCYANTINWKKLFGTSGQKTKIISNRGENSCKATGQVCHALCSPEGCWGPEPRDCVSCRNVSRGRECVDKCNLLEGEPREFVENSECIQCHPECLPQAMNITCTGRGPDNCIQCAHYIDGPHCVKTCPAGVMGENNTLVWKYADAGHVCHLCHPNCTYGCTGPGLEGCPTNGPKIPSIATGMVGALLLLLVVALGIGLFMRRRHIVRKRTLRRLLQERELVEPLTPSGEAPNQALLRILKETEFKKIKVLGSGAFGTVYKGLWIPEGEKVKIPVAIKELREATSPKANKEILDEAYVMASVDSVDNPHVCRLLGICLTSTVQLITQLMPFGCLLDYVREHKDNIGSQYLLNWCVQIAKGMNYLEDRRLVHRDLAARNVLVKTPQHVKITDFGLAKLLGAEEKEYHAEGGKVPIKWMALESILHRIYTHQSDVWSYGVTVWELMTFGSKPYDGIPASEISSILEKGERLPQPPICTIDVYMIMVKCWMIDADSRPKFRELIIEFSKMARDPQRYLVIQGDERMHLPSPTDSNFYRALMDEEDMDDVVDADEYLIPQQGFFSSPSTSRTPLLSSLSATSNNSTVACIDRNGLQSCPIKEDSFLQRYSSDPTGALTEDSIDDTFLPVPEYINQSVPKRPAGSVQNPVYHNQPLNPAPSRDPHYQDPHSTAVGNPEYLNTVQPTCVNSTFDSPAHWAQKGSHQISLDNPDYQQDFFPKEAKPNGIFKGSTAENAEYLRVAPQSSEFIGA

Structure (SMILES): C=CC(=O)Nc1cc(Nc2ncc(C(=O)OC(C)C)c(-c3cn(C)c4ccccc34)n2)c(OC)cc1N(C)[C@@H]1[C@@H]2CN(C)C[C@@H]21 [Example 1]
IC50 (NCI-H1975): ≤ 30 nM
GI50 [1]: ≤ 30 nM
GI50 [2]: ≤ 30 nM
GI50 [3]: ≤ 30 nM
GI50 [4]: ≤ 30 nM
TGI (%) [5]: 61.08%
GI50 [6]: ≤ 30 nM
IC50 (PC9): ≤ 30 nM
TGI (%) ([7]; 30 mg/kg): 79.01%
TGI (%) ([7]; 50 mg/kg): 97.44%
efficacy compared with controls (FIG. 1, tumor volume) ([7]; same dose): superior to that of TAK-788 and DZD9008

Structure (SMILES): [2H]C([2H])([2H])n1cc(-c2nc(Nc3cc(NC(=O)C=C)c(N(C)[C@@H]4[C@@H]5CN(C)C[C@@H]54)cc3OC)ncc2C(=O)OC(C)C)c2ccccc21 [Example 2]
GI50 [1]: ≤ 30 nM
GI50 [2]: ≤ 30 nM
GI50 [3]: ≤ 30 nM
GI50 [4]: ≤ 30 nM

Structure (SMILES): [2H]C([2H])([2H])N(c1cc(OC)c(Nc2ncc(C(=O)OC(C)C)c(-c3cn(C)c4ccccc34)n2)cc1NC(=O)C=C)[C@@H]1[C@@H]2CN(C)C[C@@H]21 [Example 3]
GI50 [1]: ≤ 30 nM
GI50 [2]: ≤ 30 nM
GI50 [3]: ≤ 30 nM
GI50 [4]: ≤ 30 nM

Structure (SMILES): C=CC(=O)Nc1cc(Nc2ncc(-c3nnc(C)o3)c(-c3cn(C)c4ccccc34)n2)c(OC)cc1N(C)[C@H]1[C@@H]2CN(C)C[C@@H]21 [Example 18, reference compound]
TGI (%) [5]: 32.22%

Structure (SMILES): C=CC(=O)Nc1cc(Nc2ncc(C(=O)OC(C)C)c(-c3cn(C)c4ccccc34)n2)c(OC)cc1N(C)[C@H]1[C@@H]2CN(C)C[C@@H]21 [Example 40, reference compound]
TGI (%) [5]: 37.84%

Further lines, with some results ahead:

IC50 (NCI-H1975): ≤ 30 nM
GI50 [1]: ≤ 30 nM
GI50 [2]: ≤ 30 nM
GI50 [3]: ≤ 30 nM
GI50 [4]: ≤ 30 nM
GI50 [6]: ≤ 30 nM
IC50 (PC9): ≤ 30 nM
Structure (SMILES): C=CC(=O)Nc1cc(Nc2ncc(-c3nnc(C)o3)c(-c3cn(C)c4ccccc34)n2)c(OC)cc1N(C)[C@@H]1[C@@H]2CN(C)C[C@@H]21 [Example 5]
TGI (%) [5]: 59.51%
cellular activity against HER2 exon 20 insertion mutations compared with controls ([6]; Table 7): comparable to that of TAK-788 and superior to that of DZD9008
TGI (%) ([7]; 30 mg/kg): 66.90%

GI50 [1]: ≤ 30 nM
GI50 [2]: ≤ 30 nM
GI50 [3]: ≤ 30 nM
GI50 [4]: ≤ 30 nM
Structure (SMILES): [2H]C([2H])([2H])N(c1cc(OC)c(Nc2ncc(-c3nnc(C)o3)c(-c3cn(C)c4ccccc34)n2)cc1NC(=O)C=C)[C@@H]1[C@@H]2CN(C)C[C@@H]21 [Example 7]

GI50 [1]: ≤ 30 nM
GI50 [2]: ≤ 30 nM
GI50 [3]: ≤ 30 nM
GI50 [4]: ≤ 30 nM
Structure (SMILES): [2H]C([2H])([2H])N1C[C@@H]2[C@H](C1)[C@@H]2N(C)c1cc(OC)c(Nc2ncc(-c3nnc(C)o3)c(-c3cn(C)c4ccccc34)n2)cc1NC(=O)C=C [Example 8]

crystallinity after tablet pressing [9]: crystallinity slightly decreased
hygroscopicity [10]: slightly hygroscopic
weight gain by water absorption ([10]; at 80% RH): 0.66%
solubility ([11]; organic solvent or mixture, thermodynamic from solid, 1,4-dioxane): < 270 µg/mL
solubility ([11]; organic solvent or mixture, thermodynamic from solid, Acetone): 2220 to 4440 µg/mL (≈ 3.64 to 7.28 mM)
solubility ([11]; organic solvent or mixture, thermodynamic from solid, Acetonitrile): 930 to 1010 µg/mL (≈ 1.53 to 1.66 mM)
solubility ([11]; organic solvent or mixture, thermodynamic from solid, Butanone): 2780 to 4440 µg/mL (≈ 4.56 to 7.28 mM)
solubility ([11]; organic solvent or mixture, thermodynamic from solid, Cyclohexane): < 330 µg/mL
solubility ([11]; organic solvent or mixture, thermodynamic from solid, Dichloroethane): 61800 to 124000 µg/mL (≈ 101 to 203 mM)
solubility ([11]; organic solvent or mixture, thermodynamic from solid, Dichloromethane): > 107000 µg/mL
solubility ([11]; organic solvent or mixture, thermodynamic from solid, Dimethylsulfoxide): 2600 to 2930 µg/mL (≈ 4.26 to 4.81 mM)
solubility ([11]; organic solvent or mixture, thermodynamic from solid, Ethanol): < 300 µg/mL
solubility ([11]; organic solvent or mixture, thermodynamic from solid, Ethyl acetate): < 290 µg/mL
solubility ([11]; organic solvent or mixture, thermodynamic from solid, Isopropanol): < 350 µg/mL
solubility ([11]; organic solvent or mixture, thermodynamic from solid, Isopropyl acetate): < 300 µg/mL
solubility ([11]; organic solvent or mixture, thermodynamic from solid, Methanol): < 400 µg/mL
solubility ([11]; organic solvent or mixture, thermodynamic from solid, N-Methyl pyrrolidone): 18200 to 27400 µg/mL (≈ 29.9 to 44.9 mM)
solubility ([11]; organic solvent or mixture, thermodynamic from solid, Tert-butyl methyl ether): < 330 µg/mL
solubility ([11]; organic solvent or mixture, thermodynamic from solid, Tetrahydrofuran): 2550 to 3190 µg/mL (≈ 4.18 to 5.23 mM)
solubility ([11]; organic solvent or mixture, thermodynamic from solid, n-Heptane): < 300 µg/mL
solubility ([11]; thermodynamic from solid, Water): < 270 µg/mL
solid form after dry grinding (Grinding experiment; 5 min of dry grinding): transformed into amorphous state
crystallinity after wet grinding with ethanol (Grinding experiment; 5 min of wet grinding with ethanol): slight decrease in crystallinity
crystallinity after wet grinding with water (Grinding experiment; 5 min of wet grinding with water): no significant change in crystallinity
stability, change in liquid chromatography results [12]: no change
stability, change of crystalline form by XRPD [12]: no significant change
Structure (SMILES): C=CC(=O)Nc1cc(Nc2ncc(C(=O)OC(C)C)c(-c3cn(C)c4ccccc34)n2)c(OC)cc1N(C)[C@@H]1[C@@H]2CN(C)C[C@@H]21 [free base crystalline form I]
thermodynamic stability versus free base crystalline form V [8]: thermodynamically stable crystalline form
